# System: Mutant TERT
# Assay: HepG2 hTERT mRNA assay (qPCR)
# Assay type: cell-based, human
# Settings: HepG2 cells (mutated TERT), 48 hours, TERT mRNA via qPCR
# Procedure: (§1) HepG2 cells (hepatocyte carcinoma (HCC) cells; with mutated TERT) or HEK293T cells (with wild type (wt) TERT) were seeded at 4,000 cells/well in 96-well plates. The following day, test compounds were added to cells for at concentrations of 25 uM, 12.5 uM, 6.25 uM, 3.125 uM, 1.563 uM, 0.781 uM, 0.391 uM, 0.195 uM, 0.098 uM or vehicle control (0.1% DMSO). Each condition was tested in three replicate wells. 48 hours post drug addition, the cells were harvested for RNA using the 96-Magmax RNA Isolation kit (Cat. No. AM1830). RNA was converted to cDNA using the Superscript III First strand cDNA synthesis kit (Cat. No. 18080051). RNA and cDNA concentration and quality were determined using the NanoQuant nucleic acid quantification method. 500 ng cDNA from each sample was used to detect TERT mRNA via qPCR. GUSB was also measured as an internal control and fold change to vehicle control was determined using the delta CT method.
row,SMILES,IC50
1,O=C(O)CC1CC(c2ccc(C(F)(F)F)cc2)CN(Cc2ccc(C(F)(F)F)cc2)C1 (stereo not shown) [Compound 132],0.5 to 5 µM

# Same assay, conditions: Homo sapiens; HepG2 cells (mutated TERT), 48 hours, TERT mRNA via qPCR
row,SMILES,IC50
1,"N#Cc1cc(CN2C[C@H](CC(=O)O)C[C@@H](c3ccc(C(F)(F)F)cc3)C2)ccc1Cl (racemic) [Compound 140, Anti-2-(1-(4-chloro-3-cyanobenzyl)-5-(4-(trifluoromethyl)phenyl)piperidin-3-yl)acetic acid]",0.5 to 5 µM
2,"O=C(O)C[C@H]1C[C@H](CCc2ccc(C(F)(F)F)cc2)CN(Cc2ccc(C(F)(F)F)cc2)C1 (racemic) [Compound 133, Anti-2-(1-(4-(trifluoromethyl)benzyl)-5-(4-(trifluoromethyl)phenethyl)piperidin-3-yl)acetic acid]",0.5 to 5 µM
3,"CCC(C(=O)O)[C@@H]1C[C@@H](c2ccc(C(F)(F)F)cc2)CN(Cc2ccc(C(F)(F)F)cc2)C1 (mixture of isomers) [Compound 125, Anti-2-(1-(4-(trifluoromethyl)benzyl)-5-(4-(trifluoromethyl)phenyl)piperidin-3-yl)butanoic acid]",0.5 to 5 µM
4,"O=C(O)C[C@@H]1C[C@@H](c2ccc(C(F)(F)F)cc2)CN(Cc2ccc(F)c(F)c2)C1 [Compound 118, 2-((3S,5S)-1-(3,4-difluorobenzyl)-5-(4-(trifluoromethyl)phenyl)piperidin-3-yl)acetic acid]",< 0.5 µM
5,"O=C(O)C[C@H]1C[C@H](c2ccc(F)c(F)c2)CN(Cc2ccc(C(F)(F)F)cc2)C1 (racemic) [Compound 121, Anti-2-(-5-(3,4-difluorophenyl)-1-(4-(trifluoromethyl)benzyl)piperidin-3-yl)acetic acid]",0.5 to 5 µM
6,"CS(=O)(=O)c1ccc(CN2C[C@H](CC(=O)O)C[C@@H](c3ccc(C(F)(F)F)cc3)C2)cc1 [Compound 120, 2-((3S,5S)-1-(4-(methylsulfonyl)benzyl)-5-(4-(trifluoromethyl)phenyl)piperidin-3-yl)acetic acid]",0.5 to 5 µM
7,"O=C(O)C[C@H]1C[C@H](c2ccc(C(F)(F)F)cc2)CN(Cc2ccc(C(F)(F)F)cc2Cl)C1 (racemic) [Compound 131, Anti-2-(-1-(2-chloro-4-(trifluoromethyl)benzyl)-5-(4-(trifluoromethyl)phenyl)piperidin-3-yl)acetic acid]",0.5 to 5 µM
8,"C#Cc1ccc([C@H]2C[C@H](CC(=O)O)CN(Cc3ccc(C4(C(F)(F)F)N=N4)cc3)C2)cc1 (racemic) [Compound 136, Anti-2-(5-(4-ethynylphenyl)-1-(4-(3-(trifluoromethyl)-3H-diazirin-3-yl)benzyl)piperidin-3-yl)acetic acid]",0.5 to 5 µM
9,"[N-]=[N+]=NCc1ccc(CN2C[C@H](CC(=O)O)C[C@@H](c3ccc(N=[N+]=[N-])cc3)C2)cc1 (single isomer, unassigned) [Compound 145]",0.5 to 5 µM
10,"O=C(O)C[C@H]1C[C@H](c2ccc(C(F)(F)F)cc2)CN(Cc2ccc(C(F)(F)F)c(F)c2)C1 (racemic) [Compound 130, Anti-2-(1-(3-fluoro-4-(trifluoromethyl)benzyl)-5-(4-(trifluoromethyl)phenyl)piperidin-3-yl)acetic acid]",0.5 to 5 µM
11,"O=C(O)C[C@@H]1C[C@@H](c2ccc(C(F)(F)F)cc2)CN(Cc2cccc(C(F)(F)F)c2)C1 [Compound 111, 2-((3S,5S)-1-(3-(trifluoromethyl)benzyl)-5-(4-(trifluoromethyl)phenyl)piperidin-3-yl)acetic acid]",< 0.5 µM
12,"N#Cc1cccc(CN2C[C@@H](CC(=O)O)C[C@H](c3ccc(C(F)(F)F)cc3)C2)c1 (racemic) [Compound 124, Anti-2-(-1-(3-cyanobenzyl)-5-(4-(trifluoromethyl)phenyl)piperidin-3-yl)acetic acid]",< 0.5 µM
13,"O=C(O)CC[C@H]1C[C@H](c2ccc(C(F)(F)F)cc2)CN(Cc2ccc(C(F)(F)F)cc2)C1 [Compound 126, Anti-3-(1-(4-(trifluoromethyl)benzyl)-5-(4-(trifluoromethyl)phenyl)piperidin-3-yl)propanoic acid]",0.5 to 5 µM
14,"C#Cc1ccc([C@@H]2C[C@@H](CC(=O)O)CN(Cc3ccc(C4(C(F)(F)F)N=N4)cc3)C2)cc1 (single isomer, unassigned) [Compound 146]",0.5 to 5 µM
15,"O=C(O)C[C@H]1C[C@H](c2ccc(C(F)(F)F)cc2)CN(Cc2ccc(C(F)(F)F)cc2F)C1 (racemic) [Compound 128, Anti-2-(1-(2-fluoro-4-(trifluoromethyl)benzyl)-5-(4-(trifluoromethyl)phenyl)piperidin-3-yl)acetic acid]",0.5 to 5 µM
16,"O=C(O)C[C@H]1C[C@H](c2ccc(C(F)(F)F)cc2)CN(Cc2ccc3ccccc3c2)C1 (racemic) [Compound 141, Anti-2-(1-(naphthalen-2-ylmethyl)-5-(4-(trifluoromethyl)phenyl)piperidin-3-yl)acetic acid]",0.5 to 5 µM

row,SMILES,IC50
1,"N#Cc1cccc([C@H]2C[C@H](CC(=O)O)CN(Cc3ccc(C(F)(F)F)cc3)C2)c1 (racemic) [Compound 127, anti-2-(5-(3-cyanophenyl)1-(4-(trifluoromethyl)benzyl)piperidin-3-yl)acetic acid]",0.5 to 5 µM
2,"O=C(O)C[C@@H]1C[C@@H](c2ccc(C(F)(F)F)cc2)CN(Cc2ccccc2F)C1 [Compound 119, 2-((3S,5S)-1-(2-fluorobenzyl)-5-(4-(trifluoromethyl)phenyl)piperidin-3-yl)acetic acid]",0.5 to 5 µM
3,"COc1cccc(CN2C[C@H](CC(=O)O)C[C@@H](c3ccc(C(F)(F)F)cc3)C2)c1 [Compound 110, 2-((3S,5S)-1-(3-methoxybenzyl)-5-(4-(trifluoromethyl)phenyl)piperidin-3-yl)acetic acid]",> 25 µM
4,"O=C(O)C[C@@H]1C[C@@H](c2ccc(C(F)(F)F)cc2)CN(Cc2ccc(Cl)cc2)C1 [Compound 116, 2-((3S,5S)-1-(4-chlorobenzyl)-5-(4-(trifluoromethyl)phenyl)piperidin-3-yl)acetic acid]",0.5 to 5 µM
5,"O=C(O)C[C@H]1C[C@H](c2ccc(C(F)(F)F)cc2)CN(Cc2ccccc2)C1 (racemic) [Compound 138, Anti-2-(1-benzyl-5-(4-(trifluoromethyl)phenyl)piperidin-3-yl)acetic acid]",0.5 to 5 µM
6,"O=C(O)C[C@H]1C[C@H](c2ccc(Cl)cc2)CN(Cc2ccc(Cl)cc2)C1 (racemic) [Compound 135, Anti-2-(1-(4-chlorobenzyl)-5-(4-chlorophenyl)piperidin-3-yl)acetic acid]",< 0.5 µM
7,"O=C(O)C[C@@H]1C[C@@H](c2ccc(Cl)cc2)CN(Cc2ccc(Cl)cc2)C1 [Compound 139, 2-((3S,5S)-1-(4-chlorobenzyl)-5-(4-chlorophenyl)piperidin-3-yl)acetic acid]",0.5 to 5 µM
8,"O=C(O)C[C@H]1C[C@H](c2ccc(C(F)(F)F)c(F)c2)CN(Cc2ccc(C(F)(F)F)cc2)C1 (racemic) [Compound 129, Anti-2-(5-(3-fluoro-4-(trifluoromethyl)phenyl)-1-(4-(trifluoromethyl)benzyl)piperidin-3-yl)acetic acid]",0.5 to 5 µM
9,"O=C(O)C[C@H]1C[C@H](c2ccc(F)cc2)CN(Cc2ccc(C(F)(F)F)cc2)C1 (racemic) [Compound 122, Anti-2-(5-(4-fluorophenyl)-1-(4-(trifluoromethyl)benzyl)piperidin-3-yl)acetic acid]",0.5 to 5 µM
10,"C#Cc1ccc(CN2C[C@H](CC(=O)O)C[C@@H](c3ccc(N=[N+]=[N-])cc3)C2)cc1 (single isomer, unassigned) [Compound 144]",0.5 to 5 µM
11,"C#Cc1ccc([C@H]2C[C@H](CC(=O)O)CN(Cc3ccc(N=[N+]=[N-])cc3)C2)cc1 (racemic) [Compound 137, Anti-2-(1-(4-azidobenzyl)-5-(4-ethynylphenyl)piperidin-3-yl)acetic acid]",0.5 to 5 µM
12,"O=C(O)C[C@H]1C[C@H](c2ccc(Cl)cc2)CN(Cc2ccc(C(F)(F)F)cc2)C1 (racemic) [Compound 123, Anti-2-(-5-(4-chlorophenyl)-1-(4-(trifluoromethyl)benzyl)piperidin-3-yl)acetic acid]",< 0.5 µM
13,"O=C(O)C[C@@H]1C[C@@H](c2ccc(Cl)cc2)CN(Cc2ccc(C(F)(F)F)cc2)C1 (single isomer, unassigned) [Compound 142]",< 0.5 µM
14,"O=C(O)C[C@H]1C[C@H](c2cccc(Cl)c2)CN(Cc2ccc(C(F)(F)F)cc2)C1 (racemic) [Compound 143, Anti-2-(5-(3-chlorophenyl)-1-(4-(trifluoromethyl)benzyl)piperidin-3-yl)acetic acid]",5 to 25 µM
15,"O=C(O)C[C@@H]1C[C@@H](c2ccc(C(F)(F)F)cc2)CN(Cc2ccc(F)cc2)C1 [Compound 117, 2-((3S,5S)-1-(4-fluorobenzyl)-5-(4-(trifluoromethyl)phenyl)piperidin-3-yl)acetic acid]",0.5 to 5 µM
16,"[N-]=[N+]=NCc1ccc(CN2C[C@@H](CC(=O)O)C[C@H](c3ccc(N=[N+]=[N-])cc3)C2)cc1 (racemic) [Compound 134, anti-2-(1-(4-(azidomethyl)benzyl)-5-(4-azidophenyl)piperidin-3-yl)acetic acid]",0.5 to 5 µM

# System: wt TERT
# Assay: HEK293T hTERT mRNA assay (qPCR)
# Assay type: cell-based, human
# Settings: Homo sapiens, HEK-293T; wild type TERT; read-out: wt TERT IC50
# Procedure: as §1
row,SMILES,IC50
1,"O=C(O)C[C@@H]1C[C@@H](c2ccc(C(F)(F)F)cc2)CN(Cc2cccc(C(F)(F)F)c2)C1 [Compound 111, 2-((3S,5S)-1-(3-(trifluoromethyl)benzyl)-5-(4-(trifluoromethyl)phenyl)piperidin-3-yl)acetic acid]",> 25 µM
2,"COc1cccc(CN2C[C@H](CC(=O)O)C[C@@H](c3ccc(C(F)(F)F)cc3)C2)c1 [Compound 110, 2-((3S,5S)-1-(3-methoxybenzyl)-5-(4-(trifluoromethyl)phenyl)piperidin-3-yl)acetic acid]",> 25 µM

# Same assay, conditions: Homo sapiens; HEK293 cells (wt TERT), 48 hours, class symbols; read-out: wt TERT IC50 uM HEK293
row,SMILES,IC50
1,"O=C(O)C[C@@H]1C[C@@H](c2ccc(C(F)(F)F)cc2)CN(Cc2cccc(C(F)(F)F)c2)C1 [Compound 111, 2-((3S,5S)-1-(3-(trifluoromethyl)benzyl)-5-(4-(trifluoromethyl)phenyl)piperidin-3-yl)acetic acid]",> 25 µM
2,"COc1cccc(CN2C[C@H](CC(=O)O)C[C@@H](c3ccc(C(F)(F)F)cc3)C2)c1 [Compound 110, 2-((3S,5S)-1-(3-methoxybenzyl)-5-(4-(trifluoromethyl)phenyl)piperidin-3-yl)acetic acid]",> 25 µM

# From US20230416202A1, “Small Molecule Compounds and Compositions” (Telo Therapeutics, Inc., priority 2020, published 2023)
